{"source": "the Deep4Chem optical property database", "test": "solvent given as SMILES", "data": [{"smiles": "N#CC(C#N)=C(c1ccc(-n2ccc3ccccc32)cc1)c1ccc(-n2ccc3ccccc32)cc1", "values": [{"measurement": "absorption maximum", "setting": "in Cc1ccccc1", "result": 400, "unit": "nm"}]}, {"smiles": "Cc1ccc(C2=C3C=CC4=[N+]3[P-](=O)(=O)n3c2ccc3-c2ccc([nH]2)/C(c2ccc(C)cc2)=c2/cc/c(o2)=C(\\c2ccc(C)cc2)c2ccc4[nH]2)cc1", "values": [{"measurement": "absorption maximum", "setting": "in ClC(Cl)Cl", "result": 708, "unit": "nm"}]}, {"smiles": "CCCCCCCCCCCCCCCC[n+]1ccc(/C=C/c2ccc(N(C)C)cc2)cc1", "values": [{"measurement": "absorption maximum", "setting": "in C1COCCO1", "result": 463, "unit": "nm"}, {"measurement": "absorption maximum", "setting": "in CC(C)=O", "result": 477, "unit": "nm"}, {"measurement": "absorption maximum", "setting": "in CC(C)O", "result": 481.2, "unit": "nm"}, {"measurement": "absorption maximum", "setting": "in CCCCCC", "result": 454.6, "unit": "nm"}, {"measurement": "absorption maximum", "setting": "in CCCCO", "result": 487.1, "unit": "nm"}, {"measurement": "absorption maximum", "setting": "in CCCO", "result": 485.6, "unit": "nm"}, {"measurement": "absorption maximum", "setting": "in CCO", "result": 484.9, "unit": "nm"}, {"measurement": "absorption maximum", "setting": "in CN(C)C=O", "result": 475.3, "unit": "nm"}, {"measurement": "absorption maximum", "setting": "in CO", "result": 480.2, "unit": "nm"}, {"measurement": "absorption maximum", "setting": "in CS(C)=O", "result": 479, "unit": "nm"}, {"measurement": "absorption maximum", "setting": "in Cc1ccccc1", "result": 474.8, "unit": "nm"}, {"measurement": "absorption maximum", "setting": "in ClC(Cl)(Cl)Cl", "result": 467.2, "unit": "nm"}, {"measurement": "absorption maximum", "setting": "in ClC(Cl)Cl", "result": 493, "unit": "nm"}, {"measurement": "absorption maximum", "setting": "in ClCCl", "result": 515.2, "unit": "nm"}, {"measurement": "absorption maximum", "setting": "in c1ccccc1", "result": 476, "unit": "nm"}]}, {"smiles": "c1ccc2c(P(c3c4ccccc4cc4ccccc34)c3c4ccccc4cc4ccccc34)c3ccccc3cc2c1", "values": [{"measurement": "absorption maximum", "setting": "in C1CCOC1", "result": 437, "unit": "nm"}]}, {"smiles": "Cc1ccc(S(=O)(=O)Nc2c(/C=C/c3ccccc3)sc(-c3ccc(N(C)C)cc3)c2-c2ccsc2)cc1", "values": [{"measurement": "absorption maximum", "setting": "in CC#N", "result": 465, "unit": "nm"}]}, {"smiles": "C1=C(c2ccccc2)C=C(c2ccccc2)/C1=C/c1ccc2ccc3cccc4ccc1c2c34", "values": [{"measurement": "absorption maximum", "setting": "in C1CCOC1", "result": 422, "unit": "nm"}]}, {"smiles": "Cc1cc(N2c3ccccc3C3(c4ccccc4-c4ccccc43)c3ccccc32)c(C)cc1-c1nc(-c2ccccc2)nc(-c2ccccc2)n1", "values": [{"measurement": "absorption maximum", "setting": "in Cc1ccccc1", "result": 382.89, "unit": "nm"}]}, {"smiles": "CCCCN1c2ccc(/C=C/c3cc(=O)oc4cc(C)ccc34)cc2Sc2cc(/C=C/c3cc(=O)oc4cc(C)ccc34)ccc21", "values": [{"measurement": "absorption maximum", "setting": "in ClC(Cl)Cl", "result": 441, "unit": "nm"}]}, {"smiles": "FC(F)(F)c1ccc(/C=C/c2nc(/C=C/c3ccc(N(c4ccccc4)c4ccccc4)cc3)cc(/C=C/c3ccc(N(c4ccccc4)c4ccccc4)cc3)n2)cc1", "values": [{"measurement": "absorption maximum", "setting": "in ClCCl", "result": 430, "unit": "nm"}]}, {"smiles": "Cc1cc(=O)[nH]c(=O)[nH]1", "values": [{"measurement": "absorption maximum", "setting": "in CC#N", "result": 256, "unit": "nm"}]}, {"smiles": "c1ccc(-c2nc(-c3c4ccccc4cc4ccccc34)n3ccccc23)cc1", "values": [{"measurement": "absorption maximum", "setting": "in C1CCCCC1", "result": 375, "unit": "nm"}, {"measurement": "absorption maximum", "setting": "in CC#N", "result": 375, "unit": "nm"}, {"measurement": "absorption maximum", "setting": "in CO", "result": 366, "unit": "nm"}, {"measurement": "absorption maximum", "setting": "in ClCCl", "result": 382, "unit": "nm"}, {"measurement": "absorption maximum", "setting": "in O", "result": 375, "unit": "nm"}]}, {"smiles": "CCCCCCCCc1ccc(-c2c3cc(-c4cc(CCCCCCCC)c(-c5ccc(-c6sc(/C=C7\\SC(=S)N(CC)C7=O)cc6CCCCCCCC)s5)s4)sc3c(-c3ccc(CCCCCCCC)s3)c3cc(-c4cc(CCCCCCCC)c(-c5ccc(-c6sc(/C=C7\\SC(=S)N(CC)C7=O)cc6CCCCCCCC)s5)s4)sc23)s1", "values": [{"measurement": "absorption maximum", "setting": "in ClC(Cl)Cl", "result": 509, "unit": "nm"}]}, {"smiles": "CC1(C)c2ccccc2-c2cc3c(cc21)N(c1ccc(-c2nc(-c4ccc(N5c6ccccc6C(c6ccccc6)(c6ccccc6)c6cc7c(cc65)C(C)(C)c5ccccc5-7)cc4)nc(-c4ccc(N5c6ccccc6C(c6ccccc6)(c6ccccc6)c6cc7c(cc65)C(C)(C)c5ccccc5-7)cc4)n2)cc1)c1ccccc1C3(c1ccccc1)c1ccccc1", "values": [{"measurement": "absorption maximum", "setting": "in Cc1ccccc1", "result": 321, "unit": "nm"}]}, {"smiles": "COC1=[N+]2C(=C(c3ccccc3)c3cc(SC#N)c(OC)n3[B-]2(F)F)C=C1SC#N", "values": [{"measurement": "absorption maximum", "setting": "in CC#N", "result": 513, "unit": "nm"}, {"measurement": "absorption maximum", "setting": "in CCCCCC", "result": 518, "unit": "nm"}, {"measurement": "absorption maximum", "setting": "in CCOC(C)=O", "result": 515, "unit": "nm"}, {"measurement": "absorption maximum", "setting": "in CO", "result": 512, "unit": "nm"}, {"measurement": "absorption maximum", "setting": "in ClCCl", "result": 518, "unit": "nm"}]}, {"smiles": "CCCCC1(CCCC)c2cc(/C=C/c3ccc(N(c4ccccc4)c4ccccc4)cc3)ccc2-c2cc3c(cc21)-c1ccc(/C=C/c2ccc(N(c4ccccc4)c4ccccc4)cc2)cc1C3(CCCC)CCCC", "values": [{"measurement": "absorption maximum", "setting": "in Cc1ccccc1", "result": 413, "unit": "nm"}]}, {"smiles": "CN(C)c1ccc(-c2c(/C=C3/C=Cc4ccccc4N3C)c(=O)c2=O)cc1", "values": [{"measurement": "absorption maximum", "setting": "in C1CCCCC1", "result": 358, "unit": "nm"}, {"measurement": "absorption maximum", "setting": "in Cc1ccccc1", "result": 362, "unit": "nm"}, {"measurement": "absorption maximum", "setting": "in ClCCl", "result": 509, "unit": "nm"}]}, {"smiles": "COC(=O)/C=C/C1=CC2=C(c3c(C)cc(C)cc3C)c3cc(/C=C/C(=O)OC)cn3[B-](F)(F)[N+]2=C1", "values": [{"measurement": "absorption maximum", "setting": "in ClCCl", "result": 577, "unit": "nm"}]}, {"smiles": "COCCOCCOCCOc1cc(C=O)c(OCCOCCOCCOC)cc1C=O", "values": [{"measurement": "absorption maximum", "setting": "in CC(C)(C)O", "result": 393, "unit": "nm"}, {"measurement": "absorption maximum", "setting": "in CC(C)CO", "result": 390, "unit": "nm"}, {"measurement": "absorption maximum", "setting": "in CC(C)O", "result": 391, "unit": "nm"}, {"measurement": "absorption maximum", "setting": "in CCCCO", "result": 378, "unit": "nm"}, {"measurement": "absorption maximum", "setting": "in CCCO", "result": 367, "unit": "nm"}, {"measurement": "absorption maximum", "setting": "in CCO", "result": 364, "unit": "nm"}, {"measurement": "absorption maximum", "setting": "in CN(C)C=O", "result": 393, "unit": "nm"}, {"measurement": "absorption maximum", "setting": "in CNC=O", "result": 350, "unit": "nm"}, {"measurement": "absorption maximum", "setting": "in CO", "result": 354, "unit": "nm"}, {"measurement": "absorption maximum", "setting": "in NC=O", "result": 354, "unit": "nm"}, {"measurement": "absorption maximum", "setting": "in O", "result": 394, "unit": "nm"}]}, {"smiles": "Cc1ccccc1-c1c2ccc(=[N+]3CCOCC3)cc-2oc2cc(N3CCOCC3)ccc12", "values": [{"measurement": "absorption maximum", "setting": "in CCO", "result": 556, "unit": "nm"}, {"measurement": "absorption maximum", "setting": "in ClCCl", "result": 554, "unit": "nm"}]}, {"smiles": "CCN(CC)c1cc(F)c(C(=O)c2cc(F)c(N(CC)CC)cc2F)cc1F", "values": [{"measurement": "absorption maximum", "setting": "in CCO", "result": 369, "unit": "nm"}]}, {"smiles": "Cc1ccc(C)n1-c1ccc(C#N)cc1", "values": [{"measurement": "absorption maximum", "setting": "in C1CCOC1", "result": 275, "unit": "nm"}, {"measurement": "absorption maximum", "setting": "in CCCCCC", "result": 275, "unit": "nm"}, {"measurement": "absorption maximum", "setting": "in CCCCCl", "result": 275, "unit": "nm"}, {"measurement": "absorption maximum", "setting": "in CCOCC", "result": 275, "unit": "nm"}]}, {"smiles": "COC(=O)/C(C#N)=c1\\s/c(=c2/s/c(=C(/C#N)C(=O)OC)c3cc(-c4ccc(OC)cc4)sc23)c2sc(-c3ccc(OC)cc3)cc12", "values": [{"measurement": "absorption maximum", "setting": "in Cc1ccccc1", "result": 628, "unit": "nm"}]}]}
